Laboratory results taken from US20240294478A1, “ANTI-CANCER COMPOUNDS AND METHODS OF USE” (YALE UNIVERSITY, priority 2021, published 2024).

Legend:
[1] = test system: linearized pUC19 plasmid DNA; experiment: Melting temperature assay; assay type: biochemical; conditions: 100 or 500 μM for 3 h
Description: Columns, mean; error bars, SD; n=2 independent analyses. For (A) and (C), points, mean; error bars, SD; n=3 technical replicates.
Melting Temperature Assay. Linearized pUC19 DNA (750 ng), prepared as described above, was incubated with the indicated concentration of either MMS or KL-50 adjusted in a final volume of 18 μL in 100 mM Tris buffer (pH 7.4) for 3 h. Drug stock concentrations were made in DMSO such that each reaction contained a fixed 5% DMSO concentration. Afterwards, 1 μL each of 20×SYBR Green dye (Invitrogen) and 20×ROX reference dye (Invitrogen) was added and melting temperature analysis was run on a StepOnePlus RT PCR System (Applied Biosciences) to generate melting temperature curves.

[2] = test system: PD20 cells, deficient in FANCD2 (FANCD2−/−) or complemented with FANCD2; experiment: Short-term viability assay, PD20 cells; assay type: cell-based, human; conditions: PD20 FANCD2−/− vs +FANCD2
Description: (§1) FIGS. 8A-8K. (FIG. 8A) Change in percent cells with 1 micronuclei from baseline (DMSO control) after treatment as in FIGS. 5A and 5C. […] (FIG. 8B) Short-term viability assay curves for KL-50 in PD20 cells, deficient in FANCD2 (FANCD2−/−) or complemented with FANCD2 (+FANCD2). (FIG. 8C) Short-term viability assay curves for KL-50 in PEO4 (BRCA2+) and PEO1 (BRCA2−/−) cells pre-treated with 0.01% DMSO control or 10 μM O^6BG (+O^6BG) for 1 h prior to KL-50 addition. (FIG. 8D) Short-term viability assay curves for KL-50 in DLD1 BRCA2+/− and BRCA2−/−cells pre-treated with 0.01% DMSO control or 10 μM O^6BG (+O^6BG) for 1 h prior to KL-50 addition. For FIGS. 8B-8D, points, mean; error bars, SD; n=3 technical replicates. […] Change in percent cells with 1 micronuclei from baseline (DMSO control) after treatment with olaparib (10 μM) for 48 h in LN229 MGMT+/−, MMR+/−cells. […] Western blot analysis of FANCD2 ubiquitination in LN229 MGMT+/−, MMR+/−cells and PD20 FANCD2-deficient cells, complemented with empty vector (FANCD2+EV), wildtype FANCD2 (PD20+FD2) or ubiquitination-mutant FANCD2 (PD20+KR). The % FANCD2 ubiquitination (% FANCD2 Ub) is quantified as the background-corrected integrated band intensity of the upper band divided by the sum of the background-corrected integrated band intensities of the upper and lower bands. The fold change in % FANCD2 ubiquitination is presented for each cell line relative to DMSO-treated cells. Vinculin serves as loading control. For 8J-8K, points, mean; error bars, SD; n=3 technical replicates.
(§2) Short-term Cell Viability Assay. Cells were seeded in 96-well plates at 1000 or 2000 cells/well and allowed to adhere at 23° C. for 60 min and then incubated overnight at 37° C. […] Cells were imaged on a Cytation 3 imaging reader (BioTek) and quantified using CellProfiler software. For in vitro short-term growth delay experiments, IC50 values were determined from the nonlinear regression equation, [inhibitor] vs normalized response with variable slope.

[3] = test system: DLD1 BRCA2+/− and BRCA2−/− cells; experiment: Short-term viability assay, DLD1 BRCA2 isogenic model +/- O6BG; assay type: cell-based, human; conditions: DLD1 isogenic model
Description: as §1, §2

[4] = test system: PEO4 (BRCA2+) and PEO1 (BRCA2−/−) cells; experiment: Short-term viability assay, PEO1/PEO4 model +/- O6BG; assay type: cell-based, human; conditions: PE01/4 model
Description: FIGS. 8A-8K. (FIG. 8A) Change in percent cells with 1 micronuclei from baseline (DMSO control) after treatment as in FIGS. 5A and 5C. […] (FIG. 8B) Short-term viability assay curves for KL-50 in PD20 cells, deficient in FANCD2 (FANCD2−/−) or complemented with FANCD2 (+FANCD2). (FIG. 8C) Short-term viability assay curves for KL-50 in PEO4 (BRCA2+) and PEO1 (BRCA2−/−) cells pre-treated with 0.01% DMSO control or 10 μM O^6BG (+O^6BG) for 1 h prior to KL-50 addition. (FIG. 8D) Short-term viability assay curves for KL-50 in DLD1 BRCA2+/− and BRCA2−/−cells pre-treated with 0.01% DMSO control or 10 μM O^6BG (+O^6BG) for 1 h prior to KL-50 addition. For FIGS. 8B-8D, points, mean; error bars, SD; n=3 technical replicates. […] The % FANCD2 ubiquitination (% FANCD2 Ub) is quantified as the background-corrected integrated band intensity of the upper band divided by the sum of the background-corrected integrated band intensities of the upper and lower bands. […]
as §2, with “Assay.” for “Assay. Cells were seeded in 96-well plates at 1000 or 2000 cells/well and allowed to adhere at 23° C. for 60 min and then incubated overnight at 37° C.”

**Q.** For COS(C)(=O)=O [MMS, Methylmethane sulfonate, reference compound], which “change in DNA melting temperature” value [1] is on record?
**A.** The value was “comparable changes in measured DNA melting temperature”.

**Q.** Which “sensitivity of FANCD2-deficient cells” value [2] does the source give for N.N.[Cl][Pt][Cl] [cisplatin, reference compound] here?
**A.** The value was “hypersensitivity to crosslinking agents in FANCD2−/−cells”.

**Q.** And the “therapeutic index (TI), ratio of IC50 values in MGMT+/BRCA2+ cells compared to MGMT−/BRCA2− cells” value [3]?
**A.** Its value is 42 fold.

**Q.** And the “therapeutic index (TI)” value [4]?
**A.** The value was 13 fold.
